Results taken from BindingDB's records for doi:10.7270/Q2S46Q8P (The Scripps Research Institute Molecular Screening Center, 2007).

Target: T1, 5-hydroxytryptamine receptor 1A (Homo sapiens, UniProt P08908)
T1 sequence (P08908 whole entry): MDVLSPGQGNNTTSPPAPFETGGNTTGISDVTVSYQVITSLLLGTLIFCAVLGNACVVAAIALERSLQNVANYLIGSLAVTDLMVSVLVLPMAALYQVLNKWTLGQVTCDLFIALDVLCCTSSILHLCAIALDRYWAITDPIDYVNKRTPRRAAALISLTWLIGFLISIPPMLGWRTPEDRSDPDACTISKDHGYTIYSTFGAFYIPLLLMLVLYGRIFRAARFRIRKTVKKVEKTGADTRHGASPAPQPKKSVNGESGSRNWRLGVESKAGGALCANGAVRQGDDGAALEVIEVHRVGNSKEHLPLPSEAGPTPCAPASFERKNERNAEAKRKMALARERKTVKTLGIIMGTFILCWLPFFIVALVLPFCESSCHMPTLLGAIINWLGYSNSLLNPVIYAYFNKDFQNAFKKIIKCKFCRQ
Test: serotonin 1A receptor activation, dose response (AID 718)
Settings: pH 7.4, 23 °C

[1] = inactive by the depositor's call

Compound | IC50 [µM] | IC50 [1] [µM]
N#CCCS(=O)(=O)c1nnnn1-c1ccccc1 [3-(1-phenyltetrazol-5-yl)sulfonylpropanenitrile] | 2.9 | 
OCC12C=CC(O1)c1c2c(O)n(-c2ccc(-c3ccccc3)cc2)c1O (configuration not stated) | 11.6 | 
CC(C)=CCC(C)(C)CNC(=O)NC1CCCCC1 |  | 40
CC(=O)Nc1cc(OC(C)=O)c2nonc2c1OC(C)=O [Acetic acid 7-acetoxy-5-acetylamino-benzo[1,2,5]oxadiazol-4-yl ester] | 1.78 | 
Cn1c(-c2c(N)n(C3CCCC3)c3nc4ccccc4nc23)nc2ccccc21 [1-cyclopentyl-3-(1-methyl-2-benzimidazolyl)-2-pyrrolo[3,2-b]quinoxalinamine] | 2.38 | 
O=C(Nc1ccc(N2CCOCC2)cc1)Nc1ccc2nc(-c3ccco3)c(-c3ccco3)nc2c1 [N-(2,3-di-2-furyl-6-quinoxalinyl)-N'-[4-(4-morpholinyl)phenyl]urea] | 2.29 | 
O=S1(=O)C=C(Sc2nnc(-c3ccccc3)o2)c2ccccc21 | 2.48 | 
COc1ccc(-c2cc(C(F)(F)F)nc(S(C)(=O)=O)n2)cc1OC [4-(3,4-dimethoxyphenyl)-2-methylsulfonyl-6-(trifluoromethyl)pyrimidine] | 3.59 | 
COc1cccc(N2CCN(c3ncnc4c3[nH]c3ccc(F)cc34)CC2C)c1 (configuration not stated) [8-fluoranyl-4-[4-(3-methoxyphenyl)-3-methyl-piperazin-1-yl]-5H-pyrimido[5,4-b]indole] | 0.866 | 
Cc1ccc(S(=O)(=O)Nc2cccc3ncccc23)s1 [5-methyl-N-quinolin-5-ylthiophene-2-sulfonamide] | 1.1 | 
COc1cccc(N2CCN(c3ncnc4c3[nH]c3ccccc34)CC2C)c1 (configuration not stated) [4-[4-(3-methoxyphenyl)-3-methyl-1-piperazinyl]-5H-pyrimido[5,4-b]indole] | 3.31 | 
CCCOc1ccc2nc(NC(=O)OC)[nH]c2c1 [SMR000058208] |  | 40
COC(=O)Nc1nc2ccc(Sc3ccccc3)cc2[nH]1 [FENBENDAZOLE] |  | 40
CCOc1ccc(C2=Nn3c(nnc3-c3ccccc3OC)SC2)cc1 [6-(4-ethoxyphenyl)-3-(2-methoxyphenyl)-7H-[1,2,4]triazolo[3,4-b][1,3,4]thiadiazine] |  | 25
COc1ccc(-n2nnnc2S(=O)(=O)CC(=O)N2CCCCC2)cc1 [2-[1-(4-methoxyphenyl)tetrazol-5-yl]sulfonyl-1-piperidin-1-ylethanone] | 2.6 | 
CN(C)c1nc(OCCNC(=O)COc2ccc(Cl)cc2Cl)nc(N2CCCCC2)n1 [SMR000072558] |  | 40
Cc1ccc(-n2nc3c([n+]2[O-])CCc2c-3n[o+]n2[O-])cc1 [7-(4-methylphenyl)-3,6-dioxido-4,5-dihydrotriazolo[4,5-e][2,1,3]benzoxadiazole-3,6-diium] | 3.26 | 
CCN(CC)c1ccc2c(Cl)c(Br)c(=O)oc2c1 | 2.3 | 
CCn1nc(-c2cccs2)nc2c(=O)n(C)c(=O)nc1-2 [1-ethyl-6-methyl-3-thiophen-2-yl-pyrimido[5,4-e][1,2,4]triazine-5,7-dione] | 0.421 | 
CCCOCCOC(=O)c1[nH]c2c(c1C)C(=O)CC(c1cc(OC)ccc1OC)C2 (configuration not stated) |  | 40
CCC(NC(=O)Nc1nnc(C(F)(F)F)s1)(C(F)(F)F)C(F)(F)F | 6.92 | 
CCn1nc(-c2ccccc2)nc2c(=O)n(C)c(=O)nc1-2 [1-Ethyl-6-methyl-3-phenyl-1H-pyrimido[5,4-e][1,2,4]triazine-5,7-dione] | 0.581 | 
COc1cc2c(cc1OC)-c1cc(N3CCCc4ccccc43)nc(=O)n1CC2 [2-(3,4-dihydro-2H-quinolin-1-yl)-9,10-dimethoxy-6,7-dihydropyrimido[6,1-a]isoquinolin-4-one] |  | 25
COc1ccccc1-c1nnc2n1N=C(c1ccc(O)c(O)c1)CS2 [(4E)-4-[3-(2-methoxyphenyl)-5H-[1,2,4]triazolo[3,4-b][1,3,4]thiadiazin-6-ylidene]-2-oxidanyl-cyclohexa-2,5-dien-1-one] | 40 | 
O=C(Nc1ccc(-c2nc3ncccc3o2)cc1)c1ccc(Br)o1 | 8.32 | 
COC(=O)/C(=C1/Oc2cc(C)oc(=O)c2S1)C(F)(F)F [methyl (2E)-3,3,3-tris(fluoranyl)-2-(6-methyl-4-oxidanylidene-[1,3]oxathiolo[4,5-c]pyran-2-ylidene)propanoate] | 1.24 | 

The next lines start with the values.

IC50 [µM] | IC50 [1] [µM] | Compound
 | 40 | COc1ccc(C2N(c3ccc(F)cc3)C(=O)C3CCCN32)cc1 (configuration not stated) [SMR000094164]
2.28 |  | CS(=O)(=O)c1nc(-c2ccccc2)cc(C(F)(F)F)n1 [MLS000044644]
2.44 |  | CS(=O)(=O)c1nc(-c2cccs2)cc(C(F)(F)F)n1 [MLS000044645]
40 |  | COc1cc2c(cc1OC)C1=C(C#N)CC=C(NS(=O)(=O)c3ccccc3)N1CC2 [SMR000092093]
 | 40 | COCCOC(=O)c1[nH]c2c(c1C)C(=O)CC(c1ccccc1)C2 (configuration not stated) [SMR000025505]
40 |  | CCCc1nnc2n1N=C(c1ccc(OC)c(OC)c1)CS2 [SMR000057783]
0.823 |  | COc1cc(NS(=O)(=O)c2ccc(C)cc2)c2ncccc2c1 [SMR000071147]
4.78 |  | COc1cccc(N2CCN(c3ncnc4c3cnn4-c3ccc(C)cc3C)CC2)c1 [SMR000017007]
7.33 |  | CC(=O)Oc1ccc(-n2c(O)c3c(c2O)C2(C)C=CC3(C)O2)cc1 [MLS000107813]
 | 10.9 | N#C/C(=C/c1ccc(N2CCCCCC2)o1)c1ccc(F)cc1 [MLS000051438]
3.3 |  | CS(=O)(=O)c1nc(-c2ccco2)cc(C(F)(F)F)n1 [MLS000044646]
4.85 |  | Clc1ccc(-n2nnnc2Sc2ncnc3sccc23)cc1 [SMR000066808]
40 |  | COc1ccc(-n2c(O)cc(NCc3ccncc3)c2O)cc1 [MLS000099014]
 | 22.2 | CCOc1cccc(-c2nnc3n2N=C(c2cc(OC)ccc2OC)CS3)c1 [MLS000081451]
1.88 |  | CSc1ccccc1NC=C1C(=O)CC(C)(C)CC1=O [SMR000111352]
 | 40 | CCn1c(=O)c(C(=O)Nc2nc3ccccc3[nH]2)c(O)c2ccccc21 [MLS000027148]
